From patent US20220339178A1, “COMPOSITIONS AND METHODS FOR COGNITIVE PROTECTION OF POLLINATORS AGAINST PESTICIDES” (priority 2019, published 2022)

How the values were obtained:
[1] = tested on: bumblebee Bombus impatiens; test: Olfactory conditioning of PER in bumblebees: rutin vs imidacloprid; type: in vivo
Procedure: One colony of the bumblebee Bombus impatiens (Koppert Inc) was kept in laboratory conditions. Bees received pollen inside the nests and foraged to a 1M sugar-water feeder outside of the nest. Bees were collected while on the feeder and iced anesthetized to then be yolked restrained in plastic pipettes. Bees were maintained in the pipettes for the entire duration of the experiment (five days).
Control: 1M sugar water (20 μL) fed twice a day for three consecutive days;
Rutin: 1 μM Rutin (Sigma-Aldrich R5143) diluted in 1M sugar water (20 μL) fed twice a day for three days before training on the fourth day;
Imid: fed with 1M sugar water (20 μL) twice a day for three days and fed with 20 μL of 5 nM Imidacloprid (Prime Source LLC, IN, USA) in 1M sugar water 2 hours before training on the fourth day; and
Rutin+Imid: Bees fed with 1 μM Rutin diluted in 1M sugar water (20 μL) for three days before training and receiving 20 μL of 5 nM Imidacloprid in 1M sugar water 2 hours before training on the fourth day.
(§1) All bees were trained using olfactory conditioning of the proboscis extension response (PER). Briefly, bees were exposed to a presentation of 1-nonanol (Sigma-Aldrich) for 10 s. After 7 s of the onset of the odor presentation, the antenna was stimulated with 1.5 M sugar-water to elicit the PER. Following the PER, the bee was allowed to drink sugar-water for 3 s. Each paired presentation was considered a training trial and each individual received eleven training trials with an average intertrial interval of 10 minutes. After training, all bees were fed 20 μL of 1M sugar water and maintained in plastic boxes for 24 h until the retention test. […] Twenty-four hours after the last training trial the bees were presented with the conditioned odor for 10 s.
Performance for each individual was quantified as the number of conditioned PER responses across the trials. Thus, for each bee a score between zero and ten (0-10) was recorded.
Multiple comparisons were then run using Wilcoxon-tests between groups using single or two-tailed t-tests depending upon predictions (bees on all treatments were predicted to perform better than bees in the Imidacloprid group). Error due to multiple comparisons was controlled using the False Discovery Rate method (FDR-two stage sharpened method). In all cases corrected p-values are presented.
Acquisition learning (i.e. learning curves) was compared between bees fed with imidacloprid vs. protected bees using Repeated measures.
(§2) Retention was quantified as a nominal variable (yes/no). Data were compared across treatments using a Chi-square test, followed by multiple comparisons between pairs of treatments. Error due to multiple comparisons was controlled using the FDR as indicated above. In all cases corrected p-values are presented.
Latency was quantified as a continuous variable between 0.5 s and 10 s. Data were compared across treatments using an ANOVA following a Log transformation to normalize the distribution (Shapiro-Wilk W Test after log transformation: W=0.99, p=0.55), followed by multiple comparisons between groups using two-tailed t-test. Error due to multiple comparisons was controlled using the FDR method as indicated above. In all cases corrected p-values are presented.

[2] = tested on: bumblebee Bombus impatiens; test: Olfactory conditioning of PER in bumblebees: self-administered rutin vs chronic fipronil; type: in vivo; conditions: bumblebees; score 0-10; self-administered 1 μM rutin six days; 6 nM fipronil feeder for the last three days (chronic)
Procedure: One colony of the bumblebee Bombus impatiens (Koppert Inc) was kept in laboratory conditions. Bees received pollen inside the nests and foraged to a 1M sugar-water feeder outside of the nest. Bees were collected while on the feeder and iced anesthetized to then be randomly assigned to one of four plastic containers where self-administration of one of two solutions was allowed to 10 bees out of two feeders (glass vials with 500 μL of solution each): i) 1 M sucrose water or ii) 1 μM Rutin (Sigma-Aldrich R5143) diluted in 1M sucrose water. Feeders were refilled each day for three days. On the night of the third day, one of the vials was replaced by a new one with one of two solutions: i) 1 M sucrose water or ii) 1M sucrose water+6 nM fipronil. Feeders were refilled each day for three more days, thus providing a chronic exposure to fipronil. On the night of the […] day, bees were iced anesthetized and yolked restrained in plastic pipettes. Thus, bees belonged to one of four treatments:
Control: self-administered sucrose water for six days
Rut: self-administered rutin for six days
Fipro: self-administered sucrose water for three days followed by three days of self-administered sucrose water (one feeder) and fipronil (one feeder).
Rut+Fipro: self-administered rutin for three days followed by three days of self-administered rutin (one feeder) and fipronil (one feeder).
as §1, with “blind-trained” for “trained”
Learning for each individual was quantified as the number of conditioned PER responses across the trials. Thus, for each bee a learning score between zero and ten (0-10) was recorded.
Multiple comparisons were then run comparing learning score relative to Control bees using a non-parametric one or two-tailed Steel Method depending upon predictions. These comparisons informed us about the predicted impairment produced by the fipronil, the predicted innocuous effect of the rutin and the potential level of protection. Error due to multiple comparisons was controlled using the False Discovery Rate method (FDR-two stage sharpened method). In all cases corrected p-values (q-values) are presented.
as §2, with “Memory retention” for “Retention”, “comparisons” for “comparisons between pairs”, “all treatments vs. Control.” for “treatments.”, “p-values (q values)” for “p-values”
Latency was quantified as a continuous variable between 0.5 s and 10 s. […]

Q: With `O=[N+]([O-])NC1=NCCN1Cc1ccc(Cl)nc1` [Imidacloprid] as the compound, how does the “learning across trials relative to Rutin+Imidacloprid bees” value ([1]; acquisition curves, repeated measures MANOVA) read?
A: Its value is “significantly lower”.

Q: And the “latency of response relative to Control bees” value ([1]; bumblebees)?
A: The value was “significantly longer”.

Q: What about the “latency of response relative to bees fed with Rutin” value ([1]; bumblebees) of the same compound?
A: Its value is “significantly longer”.

Q: And the “latency of response relative to bees prophylactically fed with Rutin” value ([1]; bumblebees)?
A: Its value is “not different”.

Q: What about the “memory retention after 24 h relative to Control group” value ([1]; bumblebees) of the same compound?
A: The value was “significantly lower”.

Q: And the “memory retention after 24 h relative to Rutin group” value ([1]; bumblebees)?
A: Its value is “significantly lower”.

Q: What about the “memory retention after 24 h relative to Rutin+Imidacloprid group” value ([1]; bumblebees) of the same compound?
A: The value was “significantly lower”.

Q: And the “performance score relative to Control bees” value ([1]; bumblebees, score 0-10, rutin 1 μM twice a day for three days, imidacloprid 5 nM 20 μL 2 hours before training)?
A: Its value is “significantly lower”.

Q: For `C[C@@H]1O[C@@H](OC[C@H]2O[C@@H](Oc3c(-c4ccc(O)c(O)c4)oc4cc(O)cc(O)c4c3=O)[C@H](O)[C@@H](O)[C@@H]2O)[C@H](O)[C@H](O)[C@H]1O` [Rutin], which “learning score relative to Control bees” value [2] is on record?
A: The value was “not significantly different”.
